Experimental data published in US10245264B2, “Substituted imidazo[1,2-a]pyrazines as soluble guanylate cyclase activators” (Merck Sharp & Dohme Corp., priority 2015, dated 2019).

Columns and labels:
[1] = system: systolic blood pressure in spontaneously hypertensive rats; test: Acute efficacy in spontaneously hypertensive rats (SHR), telemetry blood pressure; type: in vivo, rat
Excerpt: Acute Efficacy in Spontaneously Hypertensive Rats (SHR)
Spontaneously hypertensive rats (SHR, male, Charles River) were implanted with DSI TA11 PA-C40 telemetry device (Data Sciences, Inc., St. Paul, Minn.) under isoflurane or ketamine/metomidine anesthesia. The telemetry unit catheter was inserted into the descending aorta via the femoral artery and the telemetry device was implanted subcutaneously in the left flank area. Animals were allowed to recover from surgery for 14 days before the start of any studies. Blood pressure, heart rate, and activity signals from conscious, freely moving rats were recorded continuously for 30 seconds every 10 minutes. On the day prior to administration of compound, a single oral dose of vehicle (10% transcutol/20% Cremophor/70% water) was administered to all animals to establish baseline control data. The blood pressure lowering efficacy of compound (PO) or vehicle was evaluated following a single oral gavage. Data were collected as hourly averages, and changes in blood pressure were calculated by subtracting control baseline data on an hourly basis. Animals were maintained on normal diet with a 12 hour light-dark cycle.
Maximum peak decreases of systolic blood pressure (SBP) in SHR at a particular P.O. dose (mpk milligrams per kilogram) for the following representative compounds are provided below in Table 6.
Category A=SBP in SHRs <20 mmHg; Category B=SBP in SHRs 20-40 mmHg;
Category C=SBP in SHRs >40 mmHg

[2] = biological target: T1, sGC α1/β1 heterodimer stably expressed in CHO-K1 cells (CHO-K1/sGC) (Homo sapiens, UniProt Q02108+Q02153); test: Cell-based sGC functional assay (CASA assay), cGMP generation by HTRF; conditions: for Emax: CHO-K1, maximum cGMP production of Compound A set to 100% activation, read-out: % Act. (percent activation relative to Compound A); for EC50: CHO-K1/sGC cells, 1 hr at 37° C., 4P fit, presence or absence of DETA-NO not given, read-out: IP (nM) (inflection point)
T1 construct: expressed in transfected cells
T1 sequence (Q02108 1-690): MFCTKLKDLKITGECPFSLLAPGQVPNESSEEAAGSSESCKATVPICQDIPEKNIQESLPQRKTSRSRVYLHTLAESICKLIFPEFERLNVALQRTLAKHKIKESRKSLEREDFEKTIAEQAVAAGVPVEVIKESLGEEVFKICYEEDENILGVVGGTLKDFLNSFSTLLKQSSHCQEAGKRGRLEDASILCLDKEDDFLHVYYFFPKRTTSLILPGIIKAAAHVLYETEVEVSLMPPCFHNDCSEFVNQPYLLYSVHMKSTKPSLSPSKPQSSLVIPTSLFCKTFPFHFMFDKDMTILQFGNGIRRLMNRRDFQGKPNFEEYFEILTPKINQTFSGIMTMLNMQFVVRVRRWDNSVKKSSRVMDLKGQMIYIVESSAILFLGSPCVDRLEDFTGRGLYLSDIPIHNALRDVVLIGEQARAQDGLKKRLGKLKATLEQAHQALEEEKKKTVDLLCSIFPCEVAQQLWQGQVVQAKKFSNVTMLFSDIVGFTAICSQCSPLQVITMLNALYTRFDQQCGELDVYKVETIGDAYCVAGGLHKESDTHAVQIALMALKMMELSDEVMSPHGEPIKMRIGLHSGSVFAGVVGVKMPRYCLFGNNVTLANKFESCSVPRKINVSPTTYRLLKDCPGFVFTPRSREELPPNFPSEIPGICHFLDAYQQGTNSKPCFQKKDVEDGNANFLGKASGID
T1 sequence (Q02153 1-619): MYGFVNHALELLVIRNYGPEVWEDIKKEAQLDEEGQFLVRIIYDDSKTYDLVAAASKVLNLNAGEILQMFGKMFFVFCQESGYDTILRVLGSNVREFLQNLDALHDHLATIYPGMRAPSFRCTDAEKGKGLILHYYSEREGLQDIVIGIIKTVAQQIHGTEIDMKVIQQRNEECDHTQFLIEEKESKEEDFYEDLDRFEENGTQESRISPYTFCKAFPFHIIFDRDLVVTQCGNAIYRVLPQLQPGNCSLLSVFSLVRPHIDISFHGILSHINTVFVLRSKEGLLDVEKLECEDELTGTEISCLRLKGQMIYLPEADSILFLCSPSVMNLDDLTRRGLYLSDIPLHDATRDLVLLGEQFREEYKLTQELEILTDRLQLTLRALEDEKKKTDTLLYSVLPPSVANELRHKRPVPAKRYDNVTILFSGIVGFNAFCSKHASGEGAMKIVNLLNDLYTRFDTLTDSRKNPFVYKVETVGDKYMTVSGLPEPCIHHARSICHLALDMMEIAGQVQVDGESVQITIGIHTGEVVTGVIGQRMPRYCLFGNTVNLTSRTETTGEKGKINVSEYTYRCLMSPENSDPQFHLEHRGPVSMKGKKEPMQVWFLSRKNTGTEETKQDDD
How it was run: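 CHO-K1/sGC cells (4×10^5/mL) in EBSS with 5 mM MgCl2, 10 mM HEPES, 0.05% BSA and 0.5 mM IBMX, treated 1 hr at 37° C with compounds (2.5% DMSO) with or without 1 μM DETA-NO. cGMP measured by HTRF, expressed as % of a reference heme-dependent activator's maximum; inflection point and fold induction from 4P fit.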

| Emax [2] | EC50 [2] | % Act. (percent activation relative to Compound A) ([2]; maximum cGMP production of Compound A set to 100% activation) | Structure (SMILES) | Maximum peak decrease of systolic blood pressure (SBP), Category ([1]; single oral dose 1.0 mpk P.O.) | Maximum peak decrease of systolic blood pressure (SBP), Category ([1]; single oral dose 0.3 mpk P.O.) | Maximum peak decrease of systolic blood pressure (SBP), Category ([1]; single oral dose 3.0 mpk P.O.) |
| --- | --- | --- | --- | --- | --- | --- |
| 91% | 157 nM | – | CC1(c2ccc(Cl)cc2)C(=O)Nc2nc(-c3cn4ccnc4c(OCC(F)(F)C(F)(F)F)n3)nc(N)c21 (centres unmarked) [Example 47A, 4-amino-5-(4-chlorophenyl)-5-methyl-2-[8-(2,2,3,3,3-pentafluoro-propoxy)imidazo [1,2-a]pyrazin-6-yl]-5,7-dihydro-6H-pyrrolo[2,3-d] pyrimidin-6-one] | B (Category B=SBP in SHRs 20-40 mmHg) | – | – |
| 99% | 142 nM | – | CCCSc1nc(-c2nc(N)c3c(n2)NC(=O)C3(C)c2ccc(F)cc2)cn2ccnc12 (centres unmarked) [Example 62A, 4-amino-5-(4-fluorophenyl)-5-methyl-2-[8-(propylsulfanyl)imidazo[1,2-a]pyrazin-6-yl]-5,7-dihydro-6H-pyrrolo [2,3-d]pyrimidin-6-one] | B (Category B=SBP in SHRs 20-40 mmHg) | – | – |
| 117% | 30 nM | – | CCCOc1nc(-c2nc(N)c3c(n2)NC(=O)C3(C)c2ccc(Cl)cc2)cn2ccnc12 (centres unmarked) [Example 49A, 4-amino-5-(4-chlorophenyl)-5-methyl-2-(8-propoxyimidazo [1,2-a]pyrazin-6-yl)-5,7-dihydro-6H-pyrrolo[2,3-d] pyrimidin-6-one] | – | B (Category B=SBP in SHRs 20-40 mmHg) | – |
| 116% | 165 nM | – | CC1(c2ccc(Cl)cc2)C(=O)Nc2nc(-c3cn4ccnc4c(NCC(F)(F)C(F)(F)F)n3)nc(N)c21 (centres unmarked) [Example 61A, 4-amino-5-(4-chlorophenyl)-5-methyl-2-{8-[(2,2,3,3,3-pentafluoro-propyl)amino]imidazo[1,2-a]pyrazin-6-yl}-5,7-dihydro-6H-pyrrolo [2,3-d]pyrimidin-6-one] | – | – | B (Category B=SBP in SHRs 20-40 mmHg) |
| 129% | 157 nM | – | CC1(c2ccc(Cl)cc2)C(=O)Nc2nc(-c3cn4ccnc4c(OCC4CC(F)(F)C4)n3)nc(N)c21 (centres unmarked) [Example 32A, 4-amino-5-(4-chlorophenyl)-2-{8-[(3,3-difluoro-cyclobutyl)methoxy]imidazo [1,2-a]pyrazin-6-yl}-5-methyl-5,7-dihydro-6H-pyrrolo[2,3-d] pyrimidin-6-one] | B (Category B=SBP in SHRs 20-40 mmHg) | – | – |
| 106% | 12 nM | – | CC1(c2ccc(Cl)cc2)C(=O)Nc2nc(-c3cn4ccnc4c(OCCC4CC4)n3)nc(N)c21 (centres unmarked) [Example 50A, 4-amino-5-(4-chlorophenyl)-2-[8-(2-cyclo-propylethoxy)imidazo[1,2-a]pyrazin-6-yl]-5-methyl-5,7-dihydro-6H-pyrrolo[2,3-d] pyrimidin-6-one] | – | B (Category B=SBP in SHRs 20-40 mmHg) | – |
| 117% | 164 nM | – | CC1(c2ccc(F)cc2)C(=O)Nc2nc(-c3cn4ccnc4c(NCC(F)(F)C(F)(F)F)n3)nc(N)c21 (centres unmarked) [Example 34A, 4-amino-5-(4-fluorophenyl)-5-methyl-2-{8-[(2,2,3,3,3-pentafluoropropyl)amino]imidazo [1,2-a]pyrazin-6-yl}-5,7-dihydro-6H-pyrrolo[2,3-d] pyrimidin-6-one] | – | – | A (Category A=SBP in SHRs <20 mmHg) |
| 100% | 62 nM | – | CC1(c2ccc(F)cc2)C(=O)Nc2nc(-c3cn4ccnc4c(Oc4ccccc4F)n3)nc(N)c21 (centres unmarked) [Example 4A, 4-amino-2-[8-(2-fluorophenoxy)imidazo[1,2-a]pyrazin-6-yl]-5-(4-fluorophenyl)-5-methyl-5,7-dihydro-6H-pyrrolo[2,3-d] pyrimidin-6-one] | C (Category C=SBP in SHRs >40 mmHg) | – | – |
| 107% | 171 nM | – | CC1(c2ccc(F)cc2)C(=O)Nc2nc(-c3cn4ccnc4c(OC4CCCCC4)n3)nc(N)c21 (centres unmarked) [Example 22A, 4-amino-2-[8-(cyclohexyloxy)imidazo[1,2-a]pyrazin-6-yl]-5-(4-fluorophenyl)-5-methyl-5,7-dihydro-6H-pyrrolo[2,3-d] pyrimidin-6-one] | – | – | – |
| 100% | 60 nM | – | CC1(c2ccc(F)cc2)C(=O)Nc2nc(-c3cn4ccnc4c(OCCC4CC4)n3)nc(N)c21 (centres unmarked) [Example 44A, 4-amino-2-[8-(2-cyclopropyl-ethoxy)imidazo [1,2-a]pyrazin-6-yl]-5-(4-fluorophenyl)-5-methyl-5,7-dihydro-6H-pyrrolo[2,3-d] pyrimidin-6-one] | – | – | – |
| 92% | 35 nM | – | CC1(c2ccc(F)cc2)C(=O)Nc2nc(-c3cn4ccnc4c(NCC4CCCCC4)n3)nc(N)c21 (centres unmarked) [Example 55A, 4-amino-2-{8-[(cyclohexyl-methyl)amino]imidazo[1,2-a]pyrazin-6-yl}-5-(4-fluoro-phenyl)-5-methyl-5,7-dihydro-6H-pyrrolo[2,3-d] pyrimidin-6-one] | – | – | – |
| 108% | 912 nM | – | CC1(c2ccc(F)cc2)C(=O)Nc2nc(-c3cn4ccnc4c(OC4CCCC4)n3)nc(N)c21 (centres unmarked) [Example 46A, 4-amino-2-[8-(cyclopentyl-oxy)imidazo [1,2-a]pyrazin-6-yl]-5-(4-fluorophenyl)-5-methyl-5,7-dihydro-6H-pyrrolo[2,3-d] pyrimidin-6-one] | – | – | – |
| 158% | 422 nM | – | CC1(c2ccc(F)cc2)C(=O)Nc2nc(-c3cn4ccnc4c(Oc4cccnc4)n3)nc(N)c21 (centres unmarked) [Example 29A, 4-amino-5-(4-fluorophenyl)-5-methyl-2-[8-(pyridin-3-yloxy)imidazo[1,2-a]pyrazin-6-yl]-5,7-dihydro-6H-pyrrolo[2,3-d] pyrimidin-6-one] | – | – | – |
| 112% | 1020 nM | – | CC1(c2ccccc2)C(=O)Nc2nc(-c3cn4ccnc4c(Oc4c(F)ccc(F)c4F)n3)nc(N)c21 (centres unmarked) [Example 7B, 4-amino-5-methyl-5-phenyl-2-[8-(2,3,6-trifluorophenoxy)imidazo[1,2-a]pyrazin-6-yl]-5,7-dihydro-6H-pyrrolo[2,3-d] pyrimidin-6-one] | – | – | – |
| – | 633 nM | 85% | CC1(c2ccc(Cl)cc2)C(=O)Nc2nc(-c3cn4ccnc4c(OCC4CCCCO4)n3)nc(N)c21 (single isomer, unassigned; slow eluting) [Example 68B, 4-amino-5-(4-chlorophenyl)-5-methyl-2-[8-(tetrahydro-2H-pyran-2-ylmethoxy)imidazo[1,2-a]pyrazin-6-yl]-5,7-dihydro-6H-pyrrolo [2,3-d] pyrimidin-6-one (slow eluting)] | – | – | – |
